Assay results from patent US7601716B2, “Pyridopyrazines and derivatives thereof as ALK and c-Met inhibitors” (Cephalon, Inc., priority 2006, dated 2009).

Experiments:
[1] = target: T1, c-Met (cytoplasmic domain) (Homo sapiens, UniProt P08581); test: c-Met Kinase Assay (ELISA/TRF, PLC-γ substrate); assay type: biochemical; conditions: 3 μM ATP (Km level); read-out: c-Met Kinase Inhibition (IC50)
T1 construct: Reactions were initiated with 30 ng/mL c-Met (cytoplasmic domain, Invitrogen Corporation #PV3143); purchased Invitrogen Corporation PV3143
T1 sequence (P08581 956-1390 limits assumed): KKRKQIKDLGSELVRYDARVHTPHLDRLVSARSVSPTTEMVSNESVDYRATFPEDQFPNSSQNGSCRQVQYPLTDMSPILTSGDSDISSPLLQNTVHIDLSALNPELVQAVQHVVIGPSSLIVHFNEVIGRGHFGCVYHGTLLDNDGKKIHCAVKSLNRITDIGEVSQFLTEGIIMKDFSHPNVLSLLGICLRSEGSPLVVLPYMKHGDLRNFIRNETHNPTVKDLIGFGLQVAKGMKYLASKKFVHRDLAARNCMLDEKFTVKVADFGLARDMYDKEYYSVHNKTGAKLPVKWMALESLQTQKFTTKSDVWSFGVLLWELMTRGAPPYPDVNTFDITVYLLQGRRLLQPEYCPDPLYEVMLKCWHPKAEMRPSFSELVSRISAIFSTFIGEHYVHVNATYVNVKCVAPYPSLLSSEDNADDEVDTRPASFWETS
In short: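 Readout is TRF of europium anti-phosphotyrosine (PT66) bound to GST–PLC-γ substrate coated at 10 μg/mL, after a 15 min, 37 °C reaction started with 30 ng/mL c-Met cytoplasmic domain. Percent inhibition plotted against log compound concentration and fitted (variable slope) for IC50.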

[2] = target: baculovirus-expressed ALK (Homo sapiens, UniProt Q9UM73); test: ALK Kinase Assay (ELISA/TRF, PLC-γ substrate); assay type: biochemical; conditions: read-out: ALK Kinase Inhibition (IC50); further: 1 µM ATP (Km level)
Chain of baculovirus-expressed ALK (Q9UM73 19-1620): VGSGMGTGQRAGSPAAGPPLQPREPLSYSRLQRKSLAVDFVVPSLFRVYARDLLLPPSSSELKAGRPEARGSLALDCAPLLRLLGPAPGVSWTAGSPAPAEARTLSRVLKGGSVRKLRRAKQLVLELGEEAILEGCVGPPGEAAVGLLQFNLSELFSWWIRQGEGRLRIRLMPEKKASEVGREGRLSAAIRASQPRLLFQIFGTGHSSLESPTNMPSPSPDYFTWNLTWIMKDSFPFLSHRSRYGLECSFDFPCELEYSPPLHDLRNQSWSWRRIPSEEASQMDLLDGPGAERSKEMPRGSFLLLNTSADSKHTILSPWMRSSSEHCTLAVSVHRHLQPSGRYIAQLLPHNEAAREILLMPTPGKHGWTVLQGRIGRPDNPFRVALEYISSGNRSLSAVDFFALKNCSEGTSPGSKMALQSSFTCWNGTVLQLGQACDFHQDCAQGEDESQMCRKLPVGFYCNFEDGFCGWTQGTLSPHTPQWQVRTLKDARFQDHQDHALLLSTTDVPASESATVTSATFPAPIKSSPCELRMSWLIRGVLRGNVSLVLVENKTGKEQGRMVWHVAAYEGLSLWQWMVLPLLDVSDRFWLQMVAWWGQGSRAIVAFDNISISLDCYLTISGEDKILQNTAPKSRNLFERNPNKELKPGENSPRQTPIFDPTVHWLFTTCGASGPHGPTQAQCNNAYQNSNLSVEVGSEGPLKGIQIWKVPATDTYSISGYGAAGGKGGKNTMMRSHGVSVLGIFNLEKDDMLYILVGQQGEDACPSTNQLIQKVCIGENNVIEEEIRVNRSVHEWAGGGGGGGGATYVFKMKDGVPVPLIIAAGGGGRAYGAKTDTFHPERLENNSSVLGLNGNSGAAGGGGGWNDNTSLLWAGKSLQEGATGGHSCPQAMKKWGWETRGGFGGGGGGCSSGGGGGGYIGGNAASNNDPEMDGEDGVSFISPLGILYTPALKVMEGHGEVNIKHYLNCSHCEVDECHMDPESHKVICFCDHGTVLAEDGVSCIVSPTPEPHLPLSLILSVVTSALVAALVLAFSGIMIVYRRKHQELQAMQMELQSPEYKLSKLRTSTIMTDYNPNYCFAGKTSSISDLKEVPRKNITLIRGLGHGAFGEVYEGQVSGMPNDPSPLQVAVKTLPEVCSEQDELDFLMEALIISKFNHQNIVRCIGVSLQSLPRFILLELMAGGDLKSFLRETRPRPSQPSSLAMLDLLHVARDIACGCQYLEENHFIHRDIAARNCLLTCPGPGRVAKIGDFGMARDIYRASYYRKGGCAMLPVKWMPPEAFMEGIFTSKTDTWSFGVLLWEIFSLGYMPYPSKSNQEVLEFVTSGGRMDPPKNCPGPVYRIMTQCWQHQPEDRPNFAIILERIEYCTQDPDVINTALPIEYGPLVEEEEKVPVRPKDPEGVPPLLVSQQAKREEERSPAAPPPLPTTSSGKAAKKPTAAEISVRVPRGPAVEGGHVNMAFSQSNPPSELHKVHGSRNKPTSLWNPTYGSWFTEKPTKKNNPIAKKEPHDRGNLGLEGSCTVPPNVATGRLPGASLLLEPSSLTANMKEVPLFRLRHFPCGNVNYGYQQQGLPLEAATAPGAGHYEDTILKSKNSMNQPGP
In short: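 Read-out: TRF of europium-labeled anti-phosphotyrosine antibody bound to phosphorylated GST–PLC-γ coated at 10 μg/mL. Kinase step used 30 ng/ml ALK, 37° C, 15 minutes. IC50 values fitted by nonlinear sigmoidal dose-response (variable slope).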

Compound	IC50 [1] [µM]	IC50 [2] [µM]	melting point
N#Cc1ccc(-c2cnc3c(c2)N(Cc2ccccc2)C(=O)CN3)cn1 [Example 28, 5-(1-Benzyl-2-oxo-1,2,3,4-tetrahydropyrido[2,3-b]pyrazin-7-yl)pyridine-2-carbonitrile]	> 100	> 100	> 200 °C
CC(=O)c1ccc(-c2cnc3c(c2)N(Cc2ccccc2)C(=O)CN3)cc1 [Example 21, 7-(4-Acetylphenyl)-1-benzyl-3,4-dihydro-1H-pyrido[2,3-b]pyrazin-2-one]	> 100	10 to 100	200 °C
CCOC(=O)c1ccc(-c2cnc3c(c2)N(Cc2cc(Cl)ccc2C(F)(F)F)CCN3)cc1 [Example 193, 4-{1-[5-Chloro-2-(trifluoromethyl)benzyl]-1,2,3,4-tetrahydropyrido[2,3-b]pyrazin-7-yl}benzoic acid ethyl ester]	> 100	> 100	154 °C
Clc1ccc(Cl)c(CN2CCNc3ncc(C4=CCNCC4)cc32)c1 [Example 131, 1-(2,5-Dichlorobenzyl)-7-(1,2,3,6-tetrahydropyridin-4-yl)-1,2,3,4-tetrahydropyrido[2,3-b]pyrazine]	1 to 10	1 to 10	133 to 136 °C
O=C1CNc2ncc(I)cc2N1Cc1cc(Cl)ccc1Cl [Example 155, 1-(2,5-Dichlorobenzyl)-7-iodo-3,4-dihydro-1H-pyrido[2,3-b]pyrazin-2-one]	> 100	10 to 100	> 200 °C
Clc1ccc(Cl)c(CN2CCNc3ncc(I)cc32)c1 [Example 158, 1-(2,5-Dichlorobenzyl)-7-iodo-1,2,3,4-tetrahydropyrido[2,3-b]pyrazine]	> 100	1 to 10	169 °C
Fc1ccc(F)c(CN2CCNc3ncc(I)cc32)c1Cl [Example 98, 1-(2-Chloro-3,6-difluorobenzyl)-7-iodo-1,2,3,4-tetrahydropyrido[2,3-b]pyrazine]	> 100	1 to 10	156 to 157 °C
OC1CCNc2nc(Br)ccc21 (stereo not drawn) [Example 267, 7-bromo-1,2,3,4-tetrahydro-[1,8]naphthyridin-4-ol]	> 100	10 to 100	130 to 131 °C
N#Cc1ccc(-c2cnc3c(c2)N(Cc2cc(F)ccc2F)CCN3)cn1 [Example 71, 5-[1-(2,5-Difluorobenzyl)-1,2,3,4-tetrahydropyrido[2,3-b]pyrazin-7-yl]-pyridine-2-carbonitrile]	> 100	0.1 to 1	200 °C (dec.)
FC(F)(F)c1ccc(Cl)c(CN2CCNc3ncc(I)cc32)c1 [Example 119, 1-(2-Chloro-5-trifluoromethylbenzyl)-7-iodo-1,2,3,4-tetrahydropyrido[2,3-b]pyrazine]	> 100	> 100	120 to 125 °C
O=C1CNc2ncc(-c3cccnc3)cc2N1Cc1ccccc1 [Example 11, 1-Benzyl-7-pyridin-3-yl-3,4-dihydro-1H-pyrido[2,3-b]pyrazin-2-one]	10 to 100	10 to 100	58 °C
O=C(c1ccc(-c2cnc3c(c2)N(Cc2cc(Cl)ccc2C(F)(F)F)CCN3)cc1)N1CCN(c2nccs2)CC1 [Example 288, (4-{1-[5-Chloro-2-(trifluoromethyl)benzyl]-1,2,3,4-tetrahydropyrido[2,3-b]pyrazin-7-yl}phenyl)-(4-thiazol-2-yl-piperazin-1-yl)methanone]	10 to 100	0.1 to 1	243 to 244 °C
CN1CCN(c2ccc(-c3cnc4c(c3)C(O)CCN4)cn2)CC1 (stereo not drawn) [Example 269, 6-[6-(4-Methyl-piperazin-1-yl)pyridin-3-yl]-1,2,3,4-tetrahydro-[1,8]naphthyridin-4-ol]	10 to 100	> 100	124 to 128 °C
CN1CCN(C(=O)c2ccc(-c3cnc4c(c3)N(Cc3cc(F)ccc3F)C(=O)CN4)cc2)CC1 [Example 59, 1-(2,5-Difluorobenzyl)-7-[4-(4-methylpiperazine-1-carbonyl)phenyl]-3,4-dihydro-1H-pyrido[2,3-b]pyrazin-2-one]	10 to 100	0.1 to 1	223 °C (dec.)
CCNC(=O)c1ccc(-c2cnc3c(c2)N(Cc2ccccc2)C(=O)CN3)cc1 [Example 27, 4-(1-Benzyl-2-oxo-1,2,3,4-tetrahydropyrido[2,3-b]pyrazin-7-yl)-N-ethyl-benzamide]	10 to 100	10 to 100	195 °C
Clc1cc(-c2cnc3c(c2)N(Cc2c(Cl)cccc2Cl)CCN3)ccn1 [Example 167, 7-(2-Chloropyridin-4-yl)-1-(2,6-dichlorobenzyl)-1,2,3,4-tetrahydropyrido[2,3-b]pyrazine]	10 to 100	0.1 to 1	194 °C
O=C(Cc1cc(F)ccc1F)N1CCNc2ncc(I)cc21 [Example 112, 2-(2,5-Difluorophenyl)-1-(7-iodo-3,4-dihydro-2H-pyrido[2,3-b]pyrazin-1-yl)ethanone]	10 to 100	10 to 100	152 to 153 °C
CN1CCN(c2ccc(-c3cnc4c(c3)N(C(=O)Cc3cc(F)ccc3F)CCN4)cn2)CC1 [Example 113]	10 to 100	1 to 10	> 300 °C

The next lines start with the values.

IC50 [1] [µM]	IC50 [2] [µM]	melting point	Compound
10 to 100	0.1 to 1	169 to 172 °C	CCOC(=O)c1cncc(-c2cnc3c(c2)N(Cc2cc(F)ccc2F)CCN3)c1 [Example 73, 5-[1-(2,5-Difluorobenzyl)-1,2,3,4-tetrahydropyrido[2,3-b]pyrazin-7-yl]-nicotinic acid ethyl ester]
10 to 100	1 to 10	> 200 °C	CN(C)CCCCCCNC(=O)c1ccc(-c2cnc3c(c2)N(Cc2ccccc2)C(=O)CN3)cc1 [Example 16, 4-(1-benzyl-2-oxo-1,2,3,4-tetrahydropyrido[2,3-b]pyrazin-7-yl)-N-(6-dimethylaminohexyl)benzamide]
10 to 100	0.1 to 1	> 200 °C	O=S1(=O)CCN(CC#Cc2cnc3c(c2)N(Cc2cc(Cl)ccc2Cl)CCN3)CC1 [Example 174, 1-(2,5-Dichlorobenzyl)-7-[3-(1,1-dioxo-1λ^6-thiomorpholin-4-yl)prop-1-ynyl]-1,2,3,4-tetrahydropyrido[2,3-b]pyrazine]
1 to 10	0.1 to 1	186 °C (dec.)	O=C(c1ccc(-c2cnc3c(c2)N(Cc2cc(F)ccc2F)C(=O)CN3)cc1)N1CCC(N2CCCC2)CC1 [Example 60, 1-(2,5-Difluorobenzyl)-7-[4-(4-(pyrrolidin-1-yl)piperidine-1-carbonyl)phenyl]-3,4-dihydro-1H-pyrido[2,3-b]pyrazin-2-one]
10 to 100	0.1 to 1	> 200 °C	CN(C)CC(=O)NCC#Cc1cnc2c(c1)N(Cc1c(Cl)cccc1Cl)CCN2 [Example 172, N-{3-[1-(2,6-Dichlorobenzyl)-1,2,3,4-tetrahydropyrido[2,3-b]pyrazin-7-yl]prop-2-ynyl}-2-dimethylamino-acetamide]
10 to 100	10 to 100	145 to 147 °C	CN(C)CCNC(=O)c1ccc(-c2cnc3c(c2)N(C(=O)c2ccccc2)CCN3)cc1 [Example 52, 4-(1-Benzoyl-1,2,3,4-tetrahydropyrido[2,3-b]pyrazin-7-yl)-N-(2-dimethylamino-ethyl)benzamide]
10 to 100	> 100	177 to 178 °C	CCOC(=O)c1ccc(-c2cnc3c(c2)N(C(=O)c2ccccc2)CCN3)cc1 [Example 44, 4-(1-Benzoyl-1,2,3,4-tetrahydropyrido[2,3-b]pyrazin-7-yl)benzoic acid ethyl ester]
0.1 to 1	< 0.1	272 °C	Fc1ccc(F)c(CN2CCNc3ncc(-c4cn[nH]c4)cc32)c1Cl [Example 192, 1-(2-Chloro-3,6-difluorobenzyl)-7-(1H-pyrazol-4-yl)-1,2,3,4-tetrahydropyrido[2,3-b]pyrazine]
10 to 100	10 to 100	142 °C (dec.)	OC1CNc2ncc(I)cc2N1Cc1cc(F)ccc1C(F)(F)F (stereo not drawn) [Example 134, 1-(5-Fluoro-2-trifluoromethylbenzyl)-7-iodo-1,2,3,4-tetrahydropyrido[2,3-b]pyrazin-2-ol]
10 to 100	< 0.1	250 to 251 °C	Fc1ccc(F)c(CN2CCNc3ncc(-c4cnc(N5CCOCC5)nc4)cc32)c1Cl [Example 107, 1-(2-Chloro-3,6-difluorobenzyl)-7-(2-morpholin-4-yl-pyrimidin-5-yl)-1,2,3,4-tetrahydropyrido[2,3-b]pyrazine]
0.1 to 1	0.1 to 1	134 °C	CC(C)CCn1cc(-c2cnc3c(c2)N(Cc2c(F)ccc(F)c2Cl)CCN3)cn1 [Example 191, 1-(2-Chloro-3,6-difluorobenzyl)-7-[1-(3-methylbutyl)-1H-pyrazol-4-yl]-1,2,3,4-tetrahydropyrido[2,3-b]pyrazine]
1 to 10	1 to 10	168 °C	CN(C)CC#Cc1cnc2c(c1)N(Cc1cc(Cl)ccc1Cl)CCN2 [Example 173, {3-[1-(2,5-Dichlorobenzyl)-1,2,3,4-tetrahydropyrido[2,3-b]pyrazin-7-yl]prop-2-ynyl}-dimethylamine]
